Experimental data taken from PubChem BioAssay AID264 (DTP/NCI, 2004).
“And” between values parts separate entries of the source, which are not always exact repeats. Identical values can stand only once. Inconclusive results are not listed. Numbered stars: 1 amine (or outer) side, 2 acyl side, 3 side chain; on linkers, the order of the positions; unused ones are H or OH. Bridge positions count the residues as written; N and C are the ends. Square brackets hold non-standard residues; d marks the D form. Peptide text beside a SMILES is read from it. I, II: the chains in the order shown. Actinocin(1to9) = Cc1c2oc3c(C)ccc(C(=O)[*:2])c3nc-2c(C(=O)[*:1])c(N)c1=O; NMeV = CN[CH](C(=O)O)C(C)C; Aze = O=C(O)[CH]1CCN1; Sar = CNCC(=O)O

Test system: nude mice, LX-1 lung xenograft intrarenal, tumor weight T/C
Assay: NCI In Vivo Anticancer Drug Screen. Data for tumor model Human Lung LX-1 Xenograft (intrarenal inoculation) in NU/NU Swiss (nude) mice
Settings: endpoint: mean tumor weight change, higher = larger tumour
Outline: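 In vivo, transplantable tumor; compound vs vehicle arms; tumor size measured; value = T/C.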

[1] = dose: 3.13 mg/kg/injection, schedule: Q01DX010 (sc), vehicle: saline
[2] = dose: 12.5 mg/kg/injection, schedule: Q01DX010 (sc), vehicle: saline
[3] = dose: 25.0 mg/kg/injection, schedule: Q01DX010 (sc), vehicle: saline
[4] = dose: 150.0 mg/kg/injection, schedule: Q04DX003 (sc), vehicle: Klucel (hydroxypropylcellulose) (HPC)
[5] = dose: 300.0 mg/kg/injection, schedule: Q04DX003 (sc), vehicle: Klucel (hydroxypropylcellulose) (HPC)
[6] = dose: 600.0 mg/kg/injection, schedule: Q04DX003 (sc), vehicle: Klucel (hydroxypropylcellulose) (HPC)
[7] = dose: 1200.0 mg/kg/injection, schedule: Q04DX003 (sc), vehicle: Klucel (hydroxypropylcellulose) (HPC)
[8] = dose: 100.0 mg/kg/injection, schedule: Q01DX010 (sc), vehicle: Klucel (hydroxypropylcellulose) (HPC)
[9] = dose: 300.0 mg/kg/injection, schedule: Q04DX003 (sc), vehicle: saline
[10] = dose: 2400.0 mg/kg/injection, schedule: Q04DX003 (sc), vehicle: Klucel (hydroxypropylcellulose) (HPC)

COc1ccc(-c2csc(=[N+]3CCCCC3)s2)cc1
T/C (dose: 1.56 mg/kg/injection, schedule: Q04DX003 (sc), vehicle: water): 91 % of control | T/C (dose: 3.12 mg/kg/injection, schedule: Q04DX003 (sc), vehicle: water): 84 % of control | T/C (dose: 6.25 mg/kg/injection, schedule: Q04DX003 (sc), vehicle: water): 72 % of control | T/C (dose: 12.5 mg/kg/injection, schedule: Q04DX003 (sc), vehicle: water): 80 % of control

CC1=CC(=NN=c2cc(C)n([O-])c(C)c2)C=C(C)[N+]1=O
T/C (dose: 300.0 mg/kg/injection, schedule: Q04DX003 (sc), vehicle: suspension in saline): 96 % of control | T/C (dose: 1200.0 mg/kg/injection, schedule: Q04DX003 (sc), vehicle: suspension in saline): 77 % of control

CC1(C)N=C(N)N=C(N)N1c1ccc(F)c(C(F)(F)F)c1
T/C [1]: 76 % of control | T/C [2]: 118 % of control and 122 % of control | T/C [3]: 33 % of control

O=C(O)CSc1c(Cl)c(=O)oc2ccc(Cl)cc12
T/C [4]: 52 % of control | T/C [5]: 70 % of control | T/C [6]: 82 % of control | T/C [7]: 165 % of control

C=Cc1cnc([N+](=O)[O-])n1C
T/C (dose: 75.0 mg/kg/injection, schedule: Q04DX003 (sc), vehicle: Klucel (hydroxypropylcellulose) (HPC)): 106 % of control | T/C [4]: 96 % of control | T/C [5]: 98 % of control | T/C [6]: 92 % of control

CCCCc1ccc2nc(NC(=O)OC)[nH]c2c1
T/C (dose: 100.0 mg/kg/injection, schedule: Q01DX010 (sc), vehicle: saline with Tween-80): 53 % of control and 78 % of control | T/C (dose: 1600.0 mg/kg/injection, schedule: Q01DX010 (sc), vehicle: saline with Tween-80): 84 % of control

COc1cc(C)c2c(c1C=O)Oc1c(c(C)c(O)c3c1C(O)OC3=O)OC2=O (stereo unspecified)
T/C [2]: 95 % of control | T/C [3]: 103 % of control | T/C (dose: 50.0 mg/kg/injection, schedule: Q01DX010 (sc), vehicle: saline): 59 % of control | T/C (dose: 100.0 mg/kg/injection, schedule: Q01DX010 (sc), vehicle: saline): 32 % of control

CS(=O)(=O)OCCN(CCOS(C)(=O)=O)c1ccc(C=Nc2ccc(-c3csc(COc4ccccc4)n3)cc2)cc1
T/C (dose: 12.5 mg/kg/injection, schedule: Q01DX010 (sc), vehicle: Klucel (hydroxypropylcellulose) (HPC)): 52 % of control | T/C (dose: 25.0 mg/kg/injection, schedule: Q01DX010 (sc), vehicle: Klucel (hydroxypropylcellulose) (HPC)): 70 % of control | T/C [8]: 106 % of control

COc1ccc2[nH]c3ccc4cc[n+](CCN5CCC(C6CCN(CC[n+]7ccc8ccc9[nH]c%10ccc(OC)cc%10c9c8c7)CC6)CC5)cc4c3c2c1
T/C [4]: 88 % of control | T/C [5]: 96 % of control | T/C [6]: 83 % of control | T/C [7]: 93 % of control

Cc1nnc2ncccn12
T/C (dose: 100.0 mg/kg/injection, schedule: Q04DX003 (sc), vehicle: saline): 112 % of control | T/C (dose: 200.0 mg/kg/injection, schedule: Q04DX003 (sc), vehicle: saline): 107 % of control

c1cnc2ncncc2n1
T/C (dose: 50.0 mg/kg/injection, schedule: Q04DX003 (sc), vehicle: saline with Tween-80): 150 % of control | T/C (dose: 100.0 mg/kg/injection, schedule: Q04DX003 (sc), vehicle: saline with Tween-80): 81 % of control

COC(=O)Nc1ccc(Cc2ccc(NC(=O)OC)cc2)cc1
T/C (dose: 800.0 mg/kg/injection, schedule: Q01DX010 (sc), vehicle: saline with Tween-80): 68 % of control

CONc1ccn(C2OC(CO)C(O)C2O)c(=O)n1 (stereo unspecified)
T/C [9]: 62 % of control

c1ccc2c(c1)-c1ccccc1C1NC21 (stereo unspecified)
T/C (dose: 37.5 mg/kg/injection, schedule: Q04DX003 (sc), vehicle: saline with Tween-80): 82 % of control | T/C (dose: 75.0 mg/kg/injection, schedule: Q04DX003 (sc), vehicle: saline with Tween-80): 56 % of control | T/C (dose: 150.0 mg/kg/injection, schedule: Q04DX003 (sc), vehicle: saline with Tween-80): 45 % of control

CCOC(=O)c1[nH]c2cccc3c2c1CC(Br)C3=O (stereo unspecified)
T/C (dose: 300.0 mg/kg/injection, schedule: Q04DX003 (sc), vehicle: saline with Tween-80): 87 % of control | T/C (dose: 600.0 mg/kg/injection, schedule: Q04DX003 (sc), vehicle: saline with Tween-80): 88 % of control | T/C (dose: 1200.0 mg/kg/injection, schedule: Q04DX003 (sc), vehicle: saline with Tween-80): 84 % of control | T/C (dose: 2400.0 mg/kg/injection, schedule: Q04DX003 (sc), vehicle: saline with Tween-80): 67 % of control

C[C@]12CC[C@@H]3c4ccc(O)cc4CC[C@H]3[C@@H]1CC[C@@H]2O
T/C [5]: 120 % of control | T/C [6]: 101 % of control | T/C [7]: 103 % of control | T/C [10]: 53 % of control

C=CC(C)(C)n1cc(C2=C(O)C(=O)C(c3cn(C(C)(C)C=C)c4ccccc34)=C(O)C2=O)c2ccccc21
T/C (dose: 50.0 mg/kg/injection, schedule: Q04DX003 (sc), vehicle: Klucel (hydroxypropylcellulose) (HPC)): 63 % of control | T/C (dose: 100.0 mg/kg/injection, schedule: Q04DX003 (sc), vehicle: Klucel (hydroxypropylcellulose) (HPC)): 71 % of control | T/C (dose: 200.0 mg/kg/injection, schedule: Q04DX003 (sc), vehicle: Klucel (hydroxypropylcellulose) (HPC)): 124 % of control | T/C (dose: 400.0 mg/kg/injection, schedule: Q04DX003 (sc), vehicle: Klucel (hydroxypropylcellulose) (HPC)): 83 % of control

CN1CCN(Cc2nc3cccc4c3c([n+]2[O-])-c2ccccc2-4)CC1
T/C (dose: 12.5 mg/kg/injection, schedule: Q01DX010 (sc), vehicle: saline with Tween-80): 83 % of control | T/C (dose: 25.0 mg/kg/injection, schedule: Q01DX010 (sc), vehicle: saline with Tween-80): 161 % of control | T/C (dose: 50.0 mg/kg/injection, schedule: Q01DX010 (sc), vehicle: saline with Tween-80): 180 % of control

C[Si](C)(C)OSc1ccccc1[N+](=O)[O-]
T/C [5]: 150 % of control | T/C [6]: 151 % of control | T/C [10]: 123 % of control

Cc1c2c(ccc3ccccc32)c[n+]2ccccc12
T/C [1]: 59 % of control | T/C (dose: 6.25 mg/kg/injection, schedule: Q01DX010 (sc), vehicle: saline): 83 % of control | T/C [2]: 38 % of control

CN(C)CCN1C(=O)c2cccc3cc(N)cc(c23)C1=O
T/C (dose: 16.0 mg/kg/injection, schedule: Q04DX003 (sc), vehicle: saline with Tween-80): 157 % of control | T/C (dose: 64.0 mg/kg/injection, schedule: Q04DX003 (sc), vehicle: saline with Tween-80): 113 % of control

COC(=O)C(N)Cc1ccc(O)c(O)c1 (stereo unspecified)
T/C [9]: 118 % of control | T/C (dose: 600.0 mg/kg/injection, schedule: Q04DX003 (sc), vehicle: saline): 108 % of control | T/C (dose: 1200.0 mg/kg/injection, schedule: Q04DX003 (sc), vehicle: saline): 106 % of control | T/C (dose: 2400.0 mg/kg/injection, schedule: Q04DX003 (sc), vehicle: saline): 108 % of control

[Cl][Mn][Cl]
T/C (dose: 75.0 mg/kg/injection, schedule: Q04DX003 (sc), vehicle: saline): 68 % of control | T/C (dose: 150.0 mg/kg/injection, schedule: Q04DX003 (sc), vehicle: saline): 50 % of control

CN(C)/N=N/c1nc[nH]c1C(N)=O
T/C (dose: 50.0 mg/kg/injection, schedule: Q01DX010 (sc), vehicle: Klucel (hydroxypropylcellulose) (HPC)): 4 % of control | T/C [8]: -84 % of control | T/C (dose: 200.0 mg/kg/injection, schedule: Q01DX010 (sc), vehicle: Klucel (hydroxypropylcellulose) (HPC)): -100 % of control

Cc1c2oc3c(C)ccc(C(=O)NC4C(=O)NC(C(C)C)C(=O)N5CCCC5C(=O)N(C)CC(=O)N(C)C(C(C)C)C(=O)OC4C)c3nc-2c(C(=O)NC2C(=O)NC(C(C)C)C(=O)N3CCC3C(=O)N(C)CC(=O)N(C)C(C(C)C)C(=O)OC2C)c(N)c1=O (stereo unspecified) (I: TV[Aze][Sar][NMeV] / II: TVP[Sar][NMeV]; ester I:1-I:C, II:1-II:C; linker I:N-II:N via Actinocin(1to9); configuration not given here)
T/C (dose: 0.25 mg/kg/injection, schedule: Q04DX003 (sc), vehicle: saline + alcohol): 58 % of control | T/C (dose: 0.5 mg/kg/injection, schedule: Q04DX003 (sc), vehicle: saline + alcohol): 44 % of control | T/C (dose: 1.0 mg/kg/injection, schedule: Q04DX003 (sc), vehicle: saline + alcohol): 29 % of control

c1ccc([C@H]2CN3CCSC3=N2)cc1
T/C (dose: 30.0 mg/kg/injection, schedule: Q04DX003 (sc), vehicle: saline): 103 % of control | T/C (dose: 60.0 mg/kg/injection, schedule: Q04DX003 (sc), vehicle: saline): 121 % of control
